{
  "source": "patent US5672715A",
  "about": "“Herbicidal substituted 3-aryl-pyrazoles” (Monsanto Company, priority 1995, dated 1997)",
  "assay_type_in_all_cases": "in vivo",
  "key": {"Bedstraw Catchweed [1]": {"tested_on": "Bedstraw Catchweed", "test": "post-emergence herbicide test", "settings": "0.25 lb/A", "method_in_brief": "(§1)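 Post-emergence activity is given as percent inhibition per species. Test compounds were atomizer-sprayed at 170.3 kPa, 1870 L/Ha carrier volume and roughly 0.4% v/v emulsifier onto greenhouse-raised plants aged two to three weeks, at the stated rates.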"}, "Velvetleaf [2]": {"tested_on": "Velvetleaf", "test": "post-emergence herbicide test", "settings": "0.25 lb/A", "method_in_brief": "as §1"}, "Seedling Johnsongrass [3]": {"tested_on": "Seedling Johnsongrass", "test": "post-emergence herbicide test", "settings": "0.25 lb/A", "method_in_brief": "as §1"}, "Birdseye Speedwell [4]": {"tested_on": "Birdseye Speedwell", "test": "post-emergence herbicide test", "settings": "0.25 lb/A", "method_in_brief": "as §1"}, "Corn [5]": {"tested_on": "Corn", "test": "post-emergence herbicide test", "settings": "0.25 lb/A", "method_in_brief": "as §1"}, "Rape": {"tested_on": "Rape", "test": "pre-emergence herbicide test", "settings": "0.25 lb/A", "method_in_brief": "(§2)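 Sown seeds covered with dosed topsoil; carrier acetone or water; greenhouse, watered from below, optional 1/4 in overhead irrigation post-treatment; % inhibition at ~14 d.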"}, "Bedstraw Catchweed [6]": {"tested_on": "Bedstraw Catchweed", "test": "pre-emergence herbicide test", "settings": "0.25 lb/A", "method_in_brief": "as §2"}, "Barnyardgrass": {"tested_on": "Barnyardgrass", "test": "pre-emergence herbicide test", "settings": "Echinochloa crus-galli, pre-emergence, 0.25 lb/A; read-out: % plant inhibition", "method_in_brief": "as §2"}, "Morning Glory": {"tested_on": "Morning Glory", "test": "pre-emergence herbicide test", "settings": "0.25 lb/A", "method_in_brief": "as §2"}, "Velvetleaf [7]": {"tested_on": "Velvetleaf", "test": "pre-emergence herbicide test", "settings": "0.25 lb/A", "method_in_brief": "as §2"}, "Seedling Johnsongrass [8]": {"tested_on": "Seedling Johnsongrass", "test": "pre-emergence herbicide test", "settings": "Sorghum halepense, pre-emergence, 0.25 lb/A; read-out: % plant inhibition", "method_in_brief": "as §2"}, "Giant Foxtail": {"tested_on": "Giant Foxtail", "test": "pre-emergence herbicide test", "settings": "Setaria faberi, pre-emergence, 0.25 lb/A; read-out: % plant inhibition", "method_in_brief": "as §2"}, "Green Foxtail": {"tested_on": "Green Foxtail", "test": "pre-emergence herbicide test", "settings": "Setaria viridis, pre-emergence; 0.25 lb/A; read-out: % plant inhibition", "method_in_brief": "as §2"}, "Birdseye Speedwell [9]": {"tested_on": "Birdseye Speedwell", "test": "pre-emergence herbicide test", "settings": "pre-emergence, 0.25 lb/A; read-out: % plant inhibition", "method_in_brief": "as §2"}, "Corn [10]": {"tested_on": "Corn", "test": "pre-emergence herbicide test", "settings": "0.25 lb/A", "method_in_brief": "as §2"}, "Blackgrass": {"tested_on": "Blackgrass", "test": "pre-emergence herbicide test", "settings": "Alopecurus myosuroides, pre-emergence, 0.25 lb/A; read-out: % plant inhibition", "method_in_brief": "as §2"}, "Common Chickweed": {"tested_on": "Common Chickweed", "test": "pre-emergence herbicide test", "settings": "pre-emergence, 0.25 lb/A; read-out: % plant inhibition", "method_in_brief": "as §2"}, "Wild Oats": {"tested_on": "Wild Oats", "test": "pre-emergence herbicide test", "settings": "0.25 lb/A", "method_in_brief": "as §2"}, "Wheat": {"tested_on": "Wheat", "test": "pre-emergence herbicide test", "settings": "0.25 lb/A", "method_in_brief": "as §2"}, "Downy Brome": {"tested_on": "Downy Brome", "test": "pre-emergence herbicide test", "settings": "0.25 lb/A", "method_in_brief": "as §2"}, "Cocklebur": {"tested_on": "Cocklebur", "test": "pre-emergence herbicide test", "settings": "0.25 lb/A", "method_in_brief": "as §2"}},
  "note": "“And” between values parts separate entries of the source, which are not always exact repeats. Equal values may be shown once.",
  "data": [
    {"smiles": "Cc1c(-c2cc(C(=O)OC(C)C)c(Cl)cc2F)nn(C)c1C(F)(F)F", "note": "[Compound 8, 2-Chloro-5-[1,4-dimethyl-5-(trifluoromethyl)-1H-pyrazol-3-yl]-4-fluorobenzoic acid, 1-methylethyl ester]", "values": [
      {"measurement": "% plant inhibition", "setting": "Bedstraw Catchweed [1]", "value": "60% and 95%"},
      {"measurement": "% plant inhibition", "setting": "Velvetleaf [2]", "value": 99, "unit": "%"},
      {"measurement": "inhibition at 280.212 g/ha", "setting": "Velvetleaf [2]; Abutilon theophrasti, post-emergence, read-out: % plant inhibition", "value": 90, "unit": "%"},
      {"measurement": "% plant inhibition", "setting": "Seedling Johnsongrass [3]", "value": 90, "unit": "%"},
      {"measurement": "inhibition at 280.212 g/ha", "setting": "Seedling Johnsongrass [3]; Sorghum halepense, post-emergence, read-out: % plant inhibition", "value": 70, "unit": "%"},
      {"measurement": "% plant inhibition", "setting": "Birdseye Speedwell [4]", "value": 55, "unit": "%"},
      {"measurement": "% plant inhibition", "setting": "Corn [5]", "value": 20, "unit": "%"},
      {"measurement": "inhibition at 280.212 g/ha", "setting": "Corn [5]; Zea mays, post-emergence, read-out: % plant inhibition", "value": 15, "unit": "%"},
      {"measurement": "% plant inhibition", "setting": "Rape", "value": "100% and 90%"},
      {"measurement": "inhibition at 280.212 g/ha", "setting": "Rape; pre-emergence, read-out: % plant inhibition", "value": 98, "unit": "%"},
      {"measurement": "% plant inhibition", "setting": "Bedstraw Catchweed [6]", "value": 100, "unit": "%"},
      {"measurement": "inhibition at 280.212 g/ha", "setting": "Bedstraw Catchweed [6]; Galium aparine, pre-emergence, read-out: % plant inhibition", "value": 90, "unit": "%"},
      {"measurement": "inhibition at 280.212 g/ha", "setting": "Barnyardgrass", "value": 100, "unit": "%"},
      {"measurement": "% plant inhibition", "setting": "Morning Glory", "value": 100, "unit": "%"},
      {"measurement": "% plant inhibition", "setting": "Velvetleaf [7]", "value": 100, "unit": "%"},
      {"measurement": "inhibition at 280.212 g/ha", "setting": "Velvetleaf [7]; Abutilon theophrasti, pre-emergence, read-out: % plant inhibition", "value": 98, "unit": "%"},
      {"measurement": "inhibition at 280.212 g/ha", "setting": "Seedling Johnsongrass [8]", "value": 100, "unit": "%"},
      {"measurement": "inhibition at 280.212 g/ha", "setting": "Giant Foxtail", "value": 100, "unit": "%"},
      {"measurement": "inhibition at 280.212 g/ha", "setting": "Green Foxtail", "value": 100, "unit": "%"},
      {"measurement": "inhibition at 280.212 g/ha", "setting": "Birdseye Speedwell [9]", "value": 100, "unit": "%"},
      {"measurement": "% plant inhibition", "setting": "Corn [10]", "value": "85% and 90% and 70% and 100%"},
      {"measurement": "inhibition at 280.212 g/ha", "setting": "Blackgrass", "value": 100, "unit": "%"},
      {"measurement": "inhibition at 280.212 g/ha", "setting": "Common Chickweed", "value": 100, "unit": "%"},
      {"measurement": "% plant inhibition", "setting": "Wild Oats", "value": 100, "unit": "%"},
      {"measurement": "inhibition at 280.212 g/ha", "setting": "Wild Oats; Avena fatua, pre-emergence, read-out: % plant inhibition", "value": 95, "unit": "%"},
      {"measurement": "% plant inhibition", "setting": "Wheat", "value": 0, "unit": "%"},
      {"measurement": "% plant inhibition", "setting": "Downy Brome", "value": 99, "unit": "%"},
      {"measurement": "inhibition at 280.212 g/ha", "setting": "Downy Brome; Bromus tectorum, pre-emergence, read-out: % plant inhibition", "value": 100, "unit": "%"},
      {"measurement": "% plant inhibition", "setting": "Cocklebur", "value": "80% and 75% and 99% and 85%"}
    ]}
  ]
}
